In US4898859A, “2-Oxa-isocephem compounds and compositions containing same” (Otsuka Pharmaceutical Co., Ltd., priority 1987, dated 1990):
In brackets after ≈: the same amount, converted by molar mass. Structures can show the parent of a compound that is named as a salt.

What was measured:
Format in all cases: cell-based
S. marcescens IFO-12648 = experiment: antimicrobial activity in vitro, MIC by agar plate dilution method, S. marcescens IFO-12648; conditions: Serratia marcescens, IFO12648, inoculum 1×10^6 cells/ml, read-out: minimal inhibitory concentration (MIC)
Method: (§1) In order to investigate the in vitro activity of the under-mentioned compounds against various bacteria, the minimal inhibitory concentration (MIC) values were determined by the agar plate dilution method [see Chemotherapy, 22, 1126-1128 (1974)].
(§2) Each test inoculum was adjusted to 1×10^6 cells/ml (O.D., 600 mμ: 0.07-0.16).

E. coli NIHJ = experiment: antimicrobial activity in vitro, MIC by agar plate dilution method, E. coli NIHJ; conditions: Escherichia coli, inoculum 1×10^6 cells/ml, read-out: minimal inhibitory concentration (MIC)
Method: as §1, §2

P. aeruginosa NCTC-10490 = experiment: antimicrobial activity in vitro, MIC by agar plate dilution method, P. aeruginosa NCTC-10490; conditions: Pseudomonas aeruginosa, NCTC10490, inoculum 1×10^6 cells/ml, read-out: minimal inhibitory concentration (MIC)
Method: as §1, §2

S. aureus FDA-209-p = experiment: antimicrobial activity in vitro, MIC by agar plate dilution method, S. aureus FDA-209-p; conditions: Staphylococcus aureus, FDA209, inoculum 1×10^6 cells/ml, read-out: minimal inhibitory concentration (MIC)
Method: as §1, §2

E. coli No. 29 = experiment: antimicrobial activity in vitro, MIC by agar plate dilution method, E. coli No. 29; conditions: Escherichia coli, inoculum 1×10^6 cells/ml, read-out: minimal inhibitory concentration (MIC)
Method: as §1, §2

M. morganii ATCC-25830 = experiment: antimicrobial activity in vitro, MIC by agar plate dilution method, M. morganii ATCC-25830; conditions: Morganella morganii, ATCC25830, inoculum 1×10^6 cells/ml, read-out: minimal inhibitory concentration (MIC)
Method: as §1, §2

K. pneumoniae NCTC-9632 = experiment: antimicrobial activity in vitro, MIC by agar plate dilution method, K. pneumoniae NCTC-9632; conditions: Klebsiella pneumoniae, NCTC9632, inoculum 1×10^6 cells/ml, read-out: minimal inhibitory concentration (MIC)
Method: as §1, §2

P. mirabilis 1287 = experiment: antimicrobial activity in vitro, MIC by agar plate dilution method, P. mirabilis 1287; conditions: Proteus mirabilis, inoculum 1×10^6 cells/ml, read-out: minimal inhibitory concentration (MIC)
Method: as §1, §2

Row | SMILES | MIC (S. marcescens IFO-12648) | MIC (E. coli NIHJ) | MIC (P. aeruginosa NCTC-10490) | MIC (S. aureus FDA-209-p) | MIC (E. coli No. 29) | MIC (M. morganii ATCC-25830) | MIC (K. pneumoniae NCTC-9632) | MIC (P. mirabilis 1287)
1 | Nc1nc(/C(=N/OC2CCCC2)C(=O)N[C@@H]2C(=O)N3C(C(=O)[O-])=C(CSc4cc[n+](CC(=O)N5CCCC5)cc4)OC[C@H]23)cs1 [No. 3, (6S,7S)-7-[2-(2-Aminothiazol-4-yl)-2-cyclopentyloxyiminoacetamido]-3-[[1-(1-pyrrolidinylcarbonylmethyl)-4-pyridinio]thiomethyl]-Δ^3 -O-2-isocephem-4-carboxylic acid sulfate (syn-isomer)] | 0.78 µg/mL | 0.2 µg/mL | 0.78 µg/mL | 0.1 µg/mL | 0.1 µg/mL | 0.05 µg/mL | 0.39 µg/mL | 0.2 µg/mL
2 | CCC(=O)C[n+]1ccc(SCC2=C(C(=O)[O-])N3C(=O)[C@@H](NC(=O)/C(=N\OC4CCCC4)c4csc(N)n4)[C@H]3CO2)cc1 [No. 7, (6S,7S)-7-[2-(2-Aminothiazol-4-yl)-2-cyclopentyloxyiminoacetamido]-3-[(1-propanoylmethyl-4-pyridinio)thiomethyl] -Δ^3 -O-2-isocephem-4-carboxylic acid sulfate (syn-isomer)] | 0.78 µg/mL | 0.2 µg/mL | 0.78 µg/mL | 0.1 µg/mL | 0.1 µg/mL | 0.05 µg/mL | 0.39 µg/mL | 0.1 µg/mL
3 | C[n+]1ccc(SCC2=C(C(=O)[O-])N3C(=O)[C@@H](NC(=O)/C(=N\OCC(N)=O)c4csc(N)n4)[C@H]3CO2)cc1 [No. 5, (6S,7S)-7-[2-(2-Aminothiazol-4-yl)-2-carbamoylmethoxyiminoacetamido]-3-[(1-methyl-4-pyridinio)thiomethyl]-Δ^3 -O-2-isocephem-4-carboxylate (syn-isomer)] | 0.1 µg/mL (≈ 0.183 µM) | ≤ 0.025 µg/mL | 12.5 µg/mL (≈ 22.8 µM) | 0.2 µg/mL (≈ 0.365 µM) | ≤ 0.025 µg/mL | ≤ 0.025 µg/mL | ≤ 0.025 µg/mL | ≤ 0.025 µg/mL
4 | Nc1nc(/C(=N/OC2CCCC2)C(=O)N[C@@H]2C(=O)N3C(C(=O)[O-])=C(CSc4cc[n+](CCF)cc4)OC[C@H]23)cs1 [No. 13, (6S,7S)-7-[2-(2-Aminothiazol-4-yl)-2-cyclopentyloxyiminoacetamido]-3-[[1-(2-fluoroethyl)-4-pyridinio]thiomethyl]-Δ^3 -O-2-isocephem-4-carboxylate (syn-isomer)] | 1.56 µg/mL (≈ 2.64 µM) | 0.2 µg/mL (≈ 0.339 µM) | 0.78 µg/mL (≈ 1.32 µM) | 0.1 µg/mL (≈ 0.169 µM) | 0.1 µg/mL (≈ 0.169 µM) | 0.05 µg/mL (≈ 0.0847 µM) | 0.39 µg/mL (≈ 0.66 µM) | 0.2 µg/mL (≈ 0.339 µM)
5 | CO/N=C(\C(=O)N[C@@H]1C(=O)N2C(C(=O)[O-])=C(CSc3cc[n+](CC(=O)N4CCCC4)cc3)OC[C@H]12)c1csc(N)n1 [No. 2, (6S,7S)-7-[2-(2-Aminothiazol-4-yl)-2-methoxyiminoacetamido]-3-[[1-(1-pyrrolidinylcarbonylmethyl)-4pyridinio]thiomethyl]-Δ^3 -O-2-isocephem-4-carboxylate (syn-isomer)] | 0.1 µg/mL (≈ 0.166 µM) | ≤ 0.025 µg/mL | 1.56 µg/mL (≈ 2.59 µM) | 0.2 µg/mL (≈ 0.332 µM) | ≤ 0.025 µg/mL | ≤ 0.025 µg/mL | ≤ 0.025 µg/mL | ≤ 0.025 µg/mL
6 | CN(C)C(=O)C[n+]1ccc(SCC2=C(C(=O)[O-])N3C(=O)[C@@H](NC(=O)/C(=N\OC4CCCC4)c4csc(N)n4)[C@H]3CO2)cc1 [No. 4, (6S,7S)-7-[2-(2-Aminothiazol-4-yl)-2-cyclopentyloxyiminoacetamido]-3-[(1-N,N-dimethylcarbamoylmethyl4-pyridinio)thiomethyl]-Δ^3 -O-2-isocephem-4-carboxylic acid sulfate (syn-isomer)] | 1.56 µg/mL | 0.2 µg/mL | 1.56 µg/mL | 0.1 µg/mL | 0.1 µg/mL | 0.05 µg/mL | 0.39 µg/mL | 0.2 µg/mL
7 | CO/N=C(\C(=O)N[C@@H]1C(=O)N2C(C(=O)[O-])=C(CSc3cc[n+](CCF)cc3)OC[C@H]12)c1csc(N)n1 [No. 14, (6S,7S)-7-[2-(2-Aminothiazol-4-yl)-2-methoxyiminoacetamido]-3-[[1-(2-fluoroethyl)-4-pyridinio]thiomethyl]-Δ^3 -O-2-isocephem-4-carboxylate (syn-isomer)] | 0.1 µg/mL (≈ 0.186 µM) | ≤ 0.025 µg/mL | 1.56 µg/mL (≈ 2.91 µM) | 0.2 µg/mL (≈ 0.373 µM) | ≤ 0.025 µg/mL | ≤ 0.025 µg/mL | ≤ 0.025 µg/mL | ≤ 0.025 µg/mL
8 | CO/N=C(\C(=O)N[C@@H]1C(=O)N2C(C(=O)[O-])=C(CSc3cc[n+](CC(=O)N4CCOCC4)cc3)OC[C@H]12)c1csc(N)n1 [No. 10, (6S,7S)-7-[2-(2-Aminothiazol-4-yl)-2-methoxyiminoacetamido]-3-[(1-morpholinocarbonylmethyl-4pyridinio)thiomethyl]-Δ^3 -O-2-isocephem-4-carboxylate (syn-isomer)] | 0.1 µg/mL (≈ 0.162 µM) | ≤ 0.025 µg/mL | 6.25 µg/mL (≈ 10.1 µM) | 0.2 µg/mL (≈ 0.324 µM) | ≤ 0.025 µg/mL | ≤ 0.025 µg/mL | ≤ 0.025 µg/mL | ≤ 0.025 µg/mL
9 | Nc1nc(/C(=N/OC2CCCC2)C(=O)N[C@@H]2C(=O)N3C(C(=O)[O-])=C(CSc4cc[n+](CC(=O)N5CCNCC5)cc4)OC[C@H]23)cs1 [No. 8, (6S,7S)-7-[2-(2-Aminothiazol-4-yl)-2-cyclopentyloxyiminoacetamido]-3-[[1-(1-piperazinylcarbonylmethyl)-4-pyridinio]thiomethyl]-Δ^3 -O-2-isocephem-4-carboxylate (syn-isomer)] | 0.78 µg/mL (≈ 1.16 µM) | 0.2 µg/mL (≈ 0.298 µM) | 0.78 µg/mL (≈ 1.16 µM) | 0.2 µg/mL (≈ 0.298 µM) | 0.1 µg/mL (≈ 0.149 µM) | 0.1 µg/mL (≈ 0.149 µM) | 0.2 µg/mL (≈ 0.298 µM) | 0.39 µg/mL (≈ 0.581 µM)
10 | CO/N=C(\C(=O)N[C@@H]1C(=O)N2C(C(=O)[O-])=C(CSc3cc[n+](CC(=O)c4ccccc4)cc3)OC[C@H]12)c1csc(N)n1 [No. 1, (6S,7S)-7-[2-(2-Aminothiazol-4-yl)-2-methoxyiminoacetamido]-3-[(1-benzoylmethyl-4-pyridinio)thiomethyl]-Δ^3 -O-2-isocephem-4-carboxylate (syn-isomer)] | 0.1 µg/mL (≈ 0.164 µM) | 0.05 µg/mL (≈ 0.0821 µM) | 1.56 µg/mL (≈ 2.56 µM) | 0.05 µg/mL (≈ 0.0821 µM) | ≤ 0.025 µg/mL | 0.05 µg/mL (≈ 0.0821 µM) | 0.05 µg/mL (≈ 0.0821 µM) | 0.05 µg/mL (≈ 0.0821 µM)
11 | Nc1nc(/C(=N/OC2CCCC2)C(=O)N[C@@H]2C(=O)N3C(C(=O)[O-])=C(CSc4cc[n+](CC5CC5)cc4)OC[C@H]23)cs1 [No. 12, (6S,7S)-7-[2-(2-Aminothiazol-4-yl)-2-cyclopentyloxyiminoacetamido]-3-[(1-cyclopropylmethyl-4-pyridinio)thiomethyl]-Δ^3 -O-2- -isocephem-4-carboxylic acid ditrifluoroacetate (syn-isomer)] | 0.78 µg/mL (≈ 1.3 µM) | 0.1 µg/mL (≈ 0.167 µM) | 0.39 µg/mL (≈ 0.651 µM) | 0.05 µg/mL (≈ 0.0835 µM) | 0.05 µg/mL (≈ 0.0835 µM) | 0.05 µg/mL (≈ 0.0835 µM) | 0.2 µg/mL (≈ 0.334 µM) | 0.1 µg/mL (≈ 0.167 µM)
12 | Nc1nc(/C(=N/OC2CCCC2)C(=O)N[C@@H]2C(=O)N3C(C(=O)[O-])=C(CSc4cc[n+](CCl)cc4)OC[C@H]23)cs1 [No. 11, (6S,7S)-7-[2-(2-Aminothiazol-4-yl)-2-cyclopentyloxyiminoacetamido]-3-[(1-chloromethyl-4-pyridinio)thiomethyl]-Δ^3 -O-2-isocephem-4-carboxylate (syn-isomer)] | 0.78 µg/mL (≈ 1.32 µM) | 0.2 µg/mL (≈ 0.337 µM) | 1.56 µg/mL (≈ 2.63 µM) | 0.1 µg/mL (≈ 0.169 µM) | 0.1 µg/mL (≈ 0.169 µM) | 0.05 µg/mL (≈ 0.0843 µM) | 0.39 µg/mL (≈ 0.658 µM) | 0.2 µg/mL (≈ 0.337 µM)
13 | Nc1nc(/C(=N/OC2CCCC2)C(=O)N[C@@H]2C(=O)N3C(C(=O)[O-])=C(CSc4cc[n+](CC(=O)NO)cc4)OC[C@H]23)cs1 [No. 9, (6S,7S)-7-[2-(2-Aminothiazol-4-yl)-2-cyclopentyloxyiminoacetamido]-3-[(1-hydroxyaminocarbonylmethyl-4-pyridinio)thiomethyl]-Δ^3 -O-2-isocephem-4-carboxylate (syn-isomer)] | 1.56 µg/mL (≈ 2.53 µM) | 0.2 µg/mL (≈ 0.324 µM) | 3.13 µg/mL (≈ 5.07 µM) | 0.39 µg/mL (≈ 0.631 µM) | 0.1 µg/mL (≈ 0.162 µM) | 0.05 µg/mL (≈ 0.0809 µM) | 0.39 µg/mL (≈ 0.631 µM) | 0.2 µg/mL (≈ 0.324 µM)
